# Source: patent EP4778918A1, “RADIOACTIVE POSITRON-EMITTING NUCLIDE CARBON-11 LABELED COMPOUND AND RADIOACTIVE COMPOSITION” (The University of Osaka, priority 2023, dated 2025)
# Legend:
# MRL-Pdcd1-/- mice = test: Administration of VLA4 inhibitor AJM300 to myocarditis model mice (survival, echocardiography); format: in vivo; details: compared with AJM300(-) group
# Experimental: The AJM300 group (+) was administered with a mixed diet containing 1% of AJM300 from 2 weeks of age until death.
# At 28 days of age, 9 mice in the AJM300(-) group and 10 mice in the AJM300(+) group were evaluated for cardiac function by echocardiography and then euthanized to collect heart and blood samples.
# [1] = tested on: autoimmune myocarditis model rats; test: Anti-VLA-4 neutralizing antibody or AJM300 administration in rat autoimmune myocarditis model (cardiac function); format: in vivo, Lewis rats; details: 21 days after induction of myocarditis; diet with 1% AJM300, or 5 mg/kg antibody intravenously at 0w, 1w, 2w, 3w; compared with placebo group
# Text: Study groups were: placebo group (5 animals), AJM300-administered group (4 animals), and neutralizing antibody-administered group (5 animals) administered with anti-VLA-4-neutralizing antibody. The placebo group was fed a diet mixed with placebo (0.43% METOLOSE + 0.14% Ac-Di-Sol) from 3 days before induction of myocarditis to 3 weeks. The AJM300-administered group was fed a diet mixed with 1% AJM300 from 3 days before induction of myocarditis to 3 weeks. The neutralizing antibody-administered group was intravenously administered with 5 mg/kg of neutralizing antibody at the time of induction of myocarditis (0w), 1 week after induction of myocarditis (1w), 2 weeks after induction of myocarditis (2w), and 3 weeks after induction of myocarditis (3w). Left ventricular contractile performance and heart rate were evaluated 21 days after induction of myocarditis.
# PD1-/- mice = test: Determination of therapeutic effect on myocarditis by PET/CT with [^11C]HCA2969 tracer; format: in vivo
# Experimental: Groups of wild-type mice, placebo PD1-/- mice, AJM300-administered PD1-/- mice and anti-VLA-4 neutralizing antibody-administered PD 1-/- mice at 4 weeks of age were prepared. The placebo group was fed a normal diet and the AJM300-administered group was fed a diet containing 1% AJM300 from day 14 to day 28 after the start of rearing. The anti-VLA-4 neutralizing antibody-administered group was fed a normal diet and administered with anti-VLA -4 neutralizing antibody (10 mg/kg) intraperitoneally on days 14 and 21 after the start of rearing. On day 28 after the start of rearing, each mouse was anesthetized with isoflurane (1 to 3% in 2 L of O2) and injected with a [^11C]HCA2969 tracer (1 to 10 MBq: 10 µg of unlabeled HCA2969 containing 10 MBq of PET tracer) via a tail vein. Twenty minutes after the injection, PET/CT imaging was performed for 10 minutes.
# VLA-4 = target: T1, VLA-4 (Mus musculus, UniProt P09055+Q00651); test: [^11C]HCA2969 binding to VLA-4 in mouse monocytes (saturation, Scatchard analysis); details: 2 × 10^6 spleen monocytes
# T1 construct: monocytes collected from a spleen of a mouse; endogenous in cells; host or cells: primary monocytes from mouse spleen
# T1 sequence (Q00651 41-1039): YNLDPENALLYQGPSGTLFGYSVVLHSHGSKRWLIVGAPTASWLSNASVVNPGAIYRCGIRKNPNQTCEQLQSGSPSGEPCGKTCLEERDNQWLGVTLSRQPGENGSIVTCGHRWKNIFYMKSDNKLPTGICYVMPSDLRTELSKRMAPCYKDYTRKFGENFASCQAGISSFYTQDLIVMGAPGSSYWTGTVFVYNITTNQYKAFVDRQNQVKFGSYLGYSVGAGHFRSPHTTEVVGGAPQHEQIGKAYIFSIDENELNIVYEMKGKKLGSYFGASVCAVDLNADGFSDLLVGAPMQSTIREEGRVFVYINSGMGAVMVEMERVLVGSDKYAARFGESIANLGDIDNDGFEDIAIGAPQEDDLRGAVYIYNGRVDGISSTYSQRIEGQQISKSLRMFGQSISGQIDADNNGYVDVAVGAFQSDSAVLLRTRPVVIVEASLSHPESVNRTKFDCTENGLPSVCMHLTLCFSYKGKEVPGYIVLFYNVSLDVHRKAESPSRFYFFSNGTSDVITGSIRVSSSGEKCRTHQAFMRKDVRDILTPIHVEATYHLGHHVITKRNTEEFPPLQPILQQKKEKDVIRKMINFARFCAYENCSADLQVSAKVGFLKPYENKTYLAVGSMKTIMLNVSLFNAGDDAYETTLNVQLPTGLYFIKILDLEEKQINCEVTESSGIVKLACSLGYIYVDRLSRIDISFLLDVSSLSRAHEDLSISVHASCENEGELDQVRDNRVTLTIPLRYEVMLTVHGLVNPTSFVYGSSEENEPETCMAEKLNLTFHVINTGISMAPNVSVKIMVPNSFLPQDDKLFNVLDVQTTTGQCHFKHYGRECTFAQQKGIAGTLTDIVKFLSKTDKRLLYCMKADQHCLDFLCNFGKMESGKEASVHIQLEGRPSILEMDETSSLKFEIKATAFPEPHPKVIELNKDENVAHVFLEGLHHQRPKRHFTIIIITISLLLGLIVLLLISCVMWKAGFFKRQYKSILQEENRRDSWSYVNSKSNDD
# T1 sequence (P09055 21-798): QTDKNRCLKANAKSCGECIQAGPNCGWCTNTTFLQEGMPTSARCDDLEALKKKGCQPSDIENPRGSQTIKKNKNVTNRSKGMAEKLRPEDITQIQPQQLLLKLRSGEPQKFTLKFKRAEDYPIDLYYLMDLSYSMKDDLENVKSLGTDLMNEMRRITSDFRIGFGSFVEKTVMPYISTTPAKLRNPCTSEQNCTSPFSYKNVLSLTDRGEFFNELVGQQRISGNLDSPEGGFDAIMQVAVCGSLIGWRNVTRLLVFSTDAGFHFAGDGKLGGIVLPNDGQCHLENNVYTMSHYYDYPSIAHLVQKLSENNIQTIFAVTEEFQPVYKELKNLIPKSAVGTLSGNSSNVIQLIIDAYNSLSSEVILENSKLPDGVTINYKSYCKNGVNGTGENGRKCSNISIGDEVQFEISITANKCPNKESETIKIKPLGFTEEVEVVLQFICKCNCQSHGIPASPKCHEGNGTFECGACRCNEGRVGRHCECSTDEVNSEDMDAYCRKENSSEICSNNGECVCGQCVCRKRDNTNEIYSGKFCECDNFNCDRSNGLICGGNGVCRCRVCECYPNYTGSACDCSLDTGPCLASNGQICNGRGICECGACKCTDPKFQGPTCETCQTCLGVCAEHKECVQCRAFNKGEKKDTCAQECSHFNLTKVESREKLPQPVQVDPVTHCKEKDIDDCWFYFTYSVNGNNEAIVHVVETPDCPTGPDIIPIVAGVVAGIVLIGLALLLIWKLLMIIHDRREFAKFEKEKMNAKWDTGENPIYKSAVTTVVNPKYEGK
# Experimental: Monocytes collected from a mouse were used to evaluate the binding of a [^11C]HCA2969 to VLA-4.
# 2 × 10^6 monocytes collected from a spleen of a mouse and a [^11C]HCA2969 synthesized in the above section 1 were added to buffer (10mM Tris pH 7.5, 0.1% BSA, 150 mM NaCl, 2 mM MnCl2, 2 mM D-glucose) at concentrations of 0.025 nM, 0.1 nM, 0.4 nM, 1.6 nM, 6.4 nM and 25.6 nM, respectively, and mixed. After mixing, the cells were incubated at room temperature for 20 minutes and washed 2 times with buffer (10mM Tris pH 7.5, 0.1% BSA, 150 mM NaCl, 2 mM MnCl2, 2 mM D-glucose). Radiation dose was measured for the washed cells using a scintillation counter.
# [2] = Stability of the produced [^11C]HCA2969 over time (quality test, radiochemical purity); format: physicochemical; details: immediately after synthesis and even 90 minutes after synthesis; final formulation, approximately 10% ethanol in physiological saline
# Text: [^11C]HCA2969 was produced according to the following procedure. A synthesis scheme is shown in FIG. 1. • (1) [^11C]CO2 was produced via nuclear reaction of ^14N(p,α)^11C using N2 gas as a target using a medical cyclotron (CYPRIS HM-18, Sumitomo Heavy Industries, Ltd.). The obtained [^11C]CO2 was introduced into a vapor phase method methyl iodide synthesizer (C-GPC-100, Sumitomo Heavy Industries, Ltd.) to synthesize […] ([^11C]CH3OTf) having high reaction activity. • (2) [^11C]CH3OTf was introduced into a reaction vessel containing 500 µL of a solution of 1 mg/mL HCA2969 precursor (QD) in acetone and 3 µL of 1 mol/L NaOH and subjected to bubbling. • (3) 100 µL of 0.1 mol/L NaOH was added to the solution obtained after the bubbling in the above step (2) and a deprotection reaction was performed at room temperature for 10 minutes. • (4) 1 mL of water for injection was added to the solution obtained after the deprotection in the above step (3), the mixture was mixed thoroughly, and the whole volume was injected into HPLC to fractionate and collect [^11C]HCA2969. A representative HPLC chromatogram is shown in FIG. 2. • (5) The fractionated and collected solution was diluted with water for injection, and the whole volume was introduced into a solid-phase extraction column (HLB column) to retain [^11C]HCA2969. […]
# [3] = tested on: MRL-Pdcd1-/- and wild-type mice; test: Detection of myocarditis by PET/CT imaging with [^11C]HCA2969 tracer in mice; format: in vivo; details: about 1 to 10 MBq intravenously, days 25 to 26
# Experimental: In the MRL-Pdcd1-/- and wild-type mice prepared in the above section 5, a [^11C]HCA2969 tracer (about 1 to 10 MBq) was administered intravenously via a tail vein under inhalation anesthesia with isoflurane on days 25 to 26, followed by PET/CT imaging.
# EAE mice = details: mouse, in vivo
# EAE model mice = details: mouse, in vivo
# [4] = tested on: autoimmune myocarditis model rat; test: Detection of autoimmune myocarditis by PET/CT imaging with [^11C]HCA2969 tracer in rats; format: in vivo, Lewis rats; details: autoimmune myocarditis model rats at 3 weeks of induction; about 1 to 10 MBq intravenously
# Experimental: An autoimmune myocarditis model rat was prepared by administering 10 mg/ml of Pig Cardiac Myosin (purified in-house from pig heart) and Adjuvant (CFA 10 mg/ml; Chondrex, Inc., 7002) to Lewis rats (male, 8 weeks old). A day of administration of the Pig Cardiac Myosin was set as Day 0. In this model, myocarditis reached its climax on Day 21. […] On Day 12, infiltration of inflammatory cells into cardiac muscle tissue began, and, on Day 19, more intense infiltration of the inflammatory cells was observed. On Day 25, destruction of the cardiac muscle tissue due to inflammation was observed.
# In autoimmune myocarditis model rat prepared in the above section 2, a [^11C]HCA2969 tracer at about 1 to 10 MBq was administered intravenously via a tail vein under inhalation anesthesia with isoflurane at 3 weeks of induction, which is the climax of myocarditis, followed by PET/CT imaging.
# [5] = echocardiography at 28 days of age, diet containing 1% of AJM300, t-test p=0.0231
Bmax (VLA-4),"Kd (VLA-4; 0.025 nM to 25.6 nM, room temperature, 20 minutes, read-out: equilibrium dissociation constant Kd)",radiochemical purity [2],tracer accumulation in hearts ([3]; two MRL-Pdcd1-/- mice),tracer accumulation in hearts ([3]; two wild-type mice),SUV mean (EAE mice),SUV median (EAE mice),accumulation of the tracer signal in the brain (EAE model mice),accumulation of the tracer signal in the spinal cord (EAE model mice),tracer accumulation in hearts [4],"accumulation of the [^11C]HCA2969 tracer in the cardiac region (PD1-/- mice; PD1-/- mouse, untreated, day 28, imaging twenty minutes after the injection)",SMILES,heart rate (MRL-Pdcd1-/- mice; [5]),left ventricular contractile performance: % Fractional Shortening (%) (MRL-Pdcd1-/- mice; [5]),"Survival period (Kaplan-Meier) (MRL-Pdcd1-/- mice; mixed diet containing 1% of AJM300 from 2 weeks of age, Log-rank test p=0.0022)",cardiac function (left ventricular contractile performance and heart rate) [1],"accumulation of the [^11C]HCA2969 tracer in the cardiac region (PD1-/- mice; treated PD1-/- mice compared to the placebo group, diet containing 1% AJM300 day 14 to day 28, or antibody 10 mg/kg intraperitoneally on days 14 and 21)"
,,,,,,,,,,,"COC(=O)[C@H](Cc1ccc(-n2c(=O)c3cc(N(C)C)ccc3n(C)c2=O)cc1)NC(=O)c1c(Cl)cccc1Cl [AJM300, carotegrast methyl]",significantly ameliorated bradycardia,significantly improved,significantly prolonged,no effect,lower
81.85 Bq,0.16 nM,≥ 90%,observed,no tracer accumulation,high accumulation,high accumulation,increasing trend,significant increase,no tracer accumulation,observed,CN(C)c1ccc2c(c1)c(=O)n(-c1ccc(CC(NC(=O)c3c(Cl)cccc3Cl)C(=O)O)cc1)c(=O)n2[11CH3] (stereo not shown) [[^11C]HCA2969],,,,,
